From patent US9462805B2, “Herbicide-resistant proteins, encoding genes, and uses thereof” (Beijing Dabeinong Technology Group Co., Ltd., priority 2012, dated 2016)

What was measured:
[1] = system: Arabidopsis T1 plants transformed with substituted 24DT02 nucleotide sequence; assay: Herbicide resistance effect test of transgenic Arabidopsis T1 plants (24DT02-i); format: in vivo, Arabidopsis thaliana; conditions: number of T1 plants, genotype 24DT02-i, 560 g ae/ha sprayed; for Moderately resistant: curly rosette leaves 7 days after spraying; for Non-resistant: dead 14 days after spraying; for Highly resistant: growth consistent with blank solvent 7 days after spraying; for Lowly resistant: incapable of bolting 14 days after spraying
Description: On 7 days after planting (DAP) and 11 DAP respectively, the T1 plants (cotyledon stage and 2-4 leaves stage, respectively) were sprayed with 0.2% of Liberty herbicide solution (200 g ai/L glufosinate-ammonium) using DeVilbiss compressed air nozzle at a spraying volume of 10 ml/disc (703 L/ha) so as to provide effective amount of glufosinate-ammonium (280 g ai/ha) for each application. The survival plants (actively growing plants) were verified 4 to 7 days after the last spraying and transferred into the square pot (7 cm×7 cm) made from vermiculite and horses dung (3-5 plants per pot). The transplanted plants were covered with moisturizing mask for 3-4 days and placed in culture room at 22° C. or directly into the greenhouse as described above. Then the mask was removed and the plants were planted in greenhouse (22±5° C., 50±30% RH, 14 hours of lighting: 10 hours of darkness, minimum […] natural light+complement light) at least one day before testing the ability of 24DT02 to provide the resistance to phenoxy auxin herbicide.
24DT02 gene was used to transform Arabidopsis for the first time. At first, T1 transformants were selected from the background of un-transformed seeds, using glufosinate-ammonium selection scheme. About 40000 T1 seeds were screened among which 195 strains of T1 generation positive transformants (PAT gene) were identified, i.e. the transformation efficiency was about 0.5%. Herbicide resistance effect tests to 2,4-D dimethyl ammonium salt and agroxone of Arabidopsis T1 plants transformed with 24DT02 nucleotide sequence, substituted 24DT02 nucleotide sequence, truncated 24DT02 nucleotide sequence, added 24DT02 nucleotide sequence, control nucleotide sequence respectively and wild-type Arabidopsis plants were performed after 18 days of planting.
Arabidopsis T1 plants transformed with 24DT02 nucleotide sequence, substituted 24DT02 nucleotide sequence, truncated 24DT02 nucleotide sequence, added 24DT02 nucleotide sequence and control nucleotide sequence respectively and wild-type Arabidopsis plants were sprayed with 2,4-D dimethyl ammonium salt (560 g ae/ha, 1-fold concentration in field), agroxone (560 g ae/ha, 1-fold concentration in field) and blank solvent (water). Resistance conditions of the plants were counted 7 days and 14 days after spraying. Plants with growth conditions consistent with blank solvent (water) 7 days after spaying were classified as highly resistant plants; Plants with curly rosette leaves 7 days after spaying were classified as moderately resistant plants; Plants incapable of bolting 14 days after spaying were classified as low-resistant plants and the dead plants 14 days after spaying were classified as non-resistant plants. Because each Arabidopsis T1 plant was an independent transformation event, significant differences of individual T1 responses were expected under a given dose.

[2] = system: wild-type Arabidopsis plants; assay: Herbicide resistance effect test of wild-type Arabidopsis plants; format: in vivo, Arabidopsis thaliana; conditions: number of plants, genotype Wild, 560 g ae/ha sprayed; for Moderately resistant: curly rosette leaves 7 days after spraying; for Non-resistant: dead 14 days after spraying; for Highly resistant: growth consistent with blank solvent 7 days after spraying; for Lowly resistant: incapable of bolting 14 days after spraying
Excerpt: 24DT02 gene was used to transform Arabidopsis for the first time. At first, T1 transformants were selected from the background of un-transformed seeds, using glufosinate-ammonium selection scheme. About 40000 T1 seeds were screened among which 195 strains of T1 generation positive transformants (PAT gene) were identified, i.e. the transformation efficiency was about 0.5%. Herbicide resistance effect tests to 2,4-D dimethyl ammonium salt and agroxone of Arabidopsis T1 plants transformed with 24DT02 nucleotide sequence, substituted 24DT02 nucleotide sequence, truncated 24DT02 nucleotide sequence, added 24DT02 nucleotide sequence, control nucleotide sequence respectively and wild-type Arabidopsis plants were performed after 18 days of planting. Arabidopsis T1 plants transformed with 24DT02 nucleotide sequence, substituted 24DT02 nucleotide sequence, truncated 24DT02 nucleotide sequence, added 24DT02 nucleotide sequence and control nucleotide sequence respectively and wild-type Arabidopsis plants were sprayed with 2,4-D dimethyl ammonium salt (560 g ae/ha, 1-fold concentration in field), agroxone (560 g ae/ha, 1-fold concentration in field) and blank solvent (water). Resistance conditions of the plants were counted 7 days and 14 days after spraying. Plants with growth conditions consistent with blank solvent (water) 7 days after spaying were classified as highly resistant plants; Plants with curly rosette leaves 7 days after spaying were classified as moderately resistant plants; Plants incapable of bolting 14 days after spaying were classified as low-resistant plants and the dead plants 14 days after spaying were classified as non-resistant plants. Because each Arabidopsis T1 plant was an independent transformation event, significant differences of individual T1 responses were expected under a given dose.

[3] = system: corn plants transfected with 24DT02 truncated nucleotide sequence; assay: Herbicide-resistance effect test of transgenic corn plants (truncated 24DT02; strains S6, S7); format: in vivo, maize; conditions: 8960 g ae/ha sprayed, 21 days after spraying; for Abnormal development of prop roots / Normal development of prop roots: number of plants
Description: (§1) Herbicide resistance effects tests to 2,4-D dimethyl ammonium salt and agroxone of maize plants containing 24DT02 nucleotide sequence, 24DT02 substituted nucleotide sequence, 24DT02 truncated nucleotide sequence, 24DT02 added nucleotide sequence, control nucleotide sequence respectively and wild type maize plants (stages V3-V4) were performed respectively.
(§2) Maize plants containing 24DT02 nucleotide sequence, 24DT02 substituted nucleotide sequence, 24DT02 truncated nucleotide sequence, 24DT02 added nucleotide sequence, control nucleotide sequence respectively and wild type maize plants were taken and spayed with 2,4-D dimethyl ammonium salt (8960 g ae/ha, 16-folds concentration in field), agroxone (8960 g ae/ha, 16-folds concentration in field) and blank solvent (water) respectively. Prop root development was counted 21 days after spaying. Three strains (S1, S2, and S3) of corn plants transfected with 24DT02 nucleotide sequence, two strains (S4 and S5) of corn plants transfected with 24DT02 substituted nucleotide sequence, two strains (S6 and S7) of corn plants transfected with 24DT02 truncated nucleotide sequence, two strains (S8 and S9) of corn plants transfected with 24DT02 added nucleotide sequence, two strains (S10 and S11) of corn plants transfected with control nucleotide sequence and 1 strain of wild type (CK) corn were selected and 10-15 plants from each stain were tested.

[4] = system: wild type maize plants; assay: Herbicide-resistance effect test of wild type (CK) corn; format: in vivo; conditions: 8960 g ae/ha sprayed, 21 days after spraying; for Abnormal development of prop roots / Normal development of prop roots: number of plants
Description: as §1, §2

[5] = system: Arabidopsis; assay: Effective dose distinguishing sensitive from resistant Arabidopsis; format: in vivo
[6] = corn strain S6 (truncated 24DT02)
[7] = corn strain S7 (truncated 24DT02)

Compound | Moderately resistant [1] | Non-resistant [1] | Highly resistant [1] | Lowly resistant [1] | Moderately resistant [2] | Non-resistant [2] | Highly resistant [2] | Lowly resistant [2] | Ratio of the normally developed prop roots [3, 6] | Ratio of the normally developed prop roots [3, 7] | Abnormal development of prop roots [3, 6] | Normal development of prop roots [3, 6] | Abnormal development of prop roots [3, 7] | Normal development of prop roots [3, 7] | Ratio of the normally developed prop roots [4] | Abnormal development of prop roots [4] | Normal development of prop roots [4] | effective dose to distinguish the sensitive plants from plants with average resistance [5]
CNC.O=C(O)COc1ccc(Cl)cc1Cl [2,4-D dimethyl ammonium salt] | 4 | 4 | 8 | 1 | 0 | 20 | 0 | 0 | 86.67% | 92.86% | 2 | 13 | 1 | 13 | 0% | 16 | 0 | –
Cc1cc(Cl)ccc1OCC(=O)O [agroxone] | 5 | 6 | 9 | 1 | 0 | 16 | 0 | 0 | 87.50% | 86.67% | 2 | 14 | 2 | 13 | 0% | 16 | 0 | 50 g ae/ha
